# Columns and labels:
# [1] = tested on: wild type plants (Ler); test: ABA dose-response of germination; format: in vivo, Arabidopsis thaliana; conditions: 0.5 μM ABA, fully emerged radicles counted after 3 days
# Method: (§1) FIG. 2. ABA Sensitivity of 35S-ABF3 and 35S-ABF4 Plants. (A) Growth of transgenic plants on medium containing 0.5 μM ABA. Seeds were germinated and grown for 12 days. (B) Growth of transgenic plants on medium containing 0.25 μM ABA. Seeds were germinated on the medium for 3 days and representative plants are shown. (C) ABA dose-response of germination. Seeds, 6 months old after harvest and pre-chilled at 4° C. for 4 days, were germinated on media containing various concentrations of ABA, and seedlings with fully emerged radicles were counted after 3 days. Experiments were done in triplicates (n=50 each), and the bars show standard errors. (D) ABA dose-response of root growth. Seeds were germinated for 4 days on ABA-free medium and the seedlings (n=6) were transferred to media containing various concentrations of ABA. Root elongation was measured 5 days after the transfer. The experiments were performed more than four times, sometimes using different transgenic lines, and the results were consistent. The small bars represent standard errors. Transgenic lines A319 (ABF3) and A405 (ABF4) were used.
# (§2) To see the stage-specificity of ABA response, ABA dose-response was examined during and after germination. […] Likewise, root growth of the 35S-ABF transgenic lines was hypersensitive to ABA (FIG. 2D). At 0.5 μM ABA, wild type root growth was 84% of its control rate, whereas those of 35S-ABF4 and 35S-ABF3 plants were 35% and 51% of their control rates, respectively. At 1 μM ABA, root growth of the 35S-ABF4 plants reduced to 6% and the 35S-ABF3 plants to 37%. […] Wild type plants grew at 62% of the control rate at the same ABA concentration.
# [2] = tested on: 35S-ABF3 transgenic plants (line A319); test: ABA dose-response of germination; format: in vivo, Arabidopsis thaliana; conditions: 0.5 μM ABA, fully emerged radicles counted after 3 days
# Method: as §1, §2
# [3] = tested on: 35S-ABF4 transgenic plants (line A405); test: ABA dose-response of germination; format: in vivo, Arabidopsis thaliana; conditions: 0.5 μM ABA, fully emerged radicles counted after 3 days
# Method: as §1, §2
# [4] = tested on: wild type plants; test: Germination and growth on ABA-containing medium; format: in vivo, Arabidopsis thaliana; conditions: ABA 0.5 μM or above
# Method: as §1
# (§3) To test whether ABF3 or ABF4 overexpression affected ABA sensitivity, 35S-ABF3 and 35S-ABF4 transgenic plants were germinated and grown on media containing various concentrations of ABA. […]
# [5] = tested on: 35S-ABF plants; test: Germination and growth on ABA-containing medium; format: in vivo, Arabidopsis thaliana; conditions: ABA 0.5 μM or above
# Method: as §1, §3
# [6] = tested on: wild type plants (Ler); test: ABA dose-response of root growth; format: in vivo, Arabidopsis thaliana
# Method: as §1, §2
# [7] = tested on: 35S-ABF transgenic plants; test: ABA dose-response of root growth; format: in vivo, Arabidopsis thaliana; conditions: ABA concentration above 5 μM
# Method: as §1, §2
# [8] = tested on: 35S-ABF3 transgenic plants (line A319); test: ABA dose-response of root growth; format: in vivo; conditions: Arabidopsis thaliana, 120 h, root elongation 5 days after transfer, read-out: root growth, % of control rate
# Method: as §1, §2
# [9] = tested on: 35S-ABF4 transgenic plants (line A405); test: ABA dose-response of root growth; format: in vivo; conditions: Arabidopsis thaliana, 120 h, root elongation 5 days after transfer, read-out: root growth, % of control rate
# Method: as §1, §2
# [10] = tested on: 35S-ABF and wild type plants; test: Effect of ACC and IAA on growth of 35S-ABF versus wild type plants; design: species or system Arabidopsis thaliana; conditions: in vivo
# Text: According to the studies, ABA-mediated inhibition of germination is negatively regulated by ethylene, whereas ethylene signaling components are required for the ABA inhibition of root growth (Beaudoin et al., 2000; Ghassemian et al., 2000). […] When exposed to progressive drought, new lateral roots take a short and tuberized form. The process, known as ‘drought rhizogenesis’, is impaired not only in the ABA deficient aba-1 and ABA-insensitive abi1-1 mutants but also in the auxin resistant axr1-3 mutant. To test whether the overexpression of ABF3 or ABF4 affected ethylene or auxin sensitivity, we compared the effects of the ethylene precursor 1-aminocyclopropane-1-carboxylic acid (ACC) and indole-3-acetic acid (IAA) on the growth of 35S-ABF and wild type plants. […] However, leaves of 35S-ABF4 plants have a tendency to have epinastic curvature when grown on plates (FIG. 4A), which is generally attributed to ethylene action under stress conditions (Jackson, 1997). […] Thus, the result implies that auxin signaling pathway(s) might have been perturbed in 35S-ABF4 plants.
# [11] = tested on: wild type plants; conditions: NaCl below 100 mM; wild type (also aba1, abi1, abi2 mutants)
# Method: (§4) FIG. 3. […] (A) Salt effect on germination. Seeds of Ler, aba1-1, abi1-1, abi2-1, 35S-ABF3 (line A319) and 35S-ABF4 (line A405) were plated after 4 days of cold treatment on media containing 50, 100, or 150 mM NaCl, and germination (fully open cotyledons) was scored after 4 days. Experiments were done in triplicates (n=50 each), and standard errors are smaller than the symbols. (B) Salt effect on newly germinated seedling growth. Seeds of the same transgenic lines were germinated for 4 days on media containing 100 mM of NaCl, KCl or mannitol, and representative seedlings are shown. (C) Glucose response of 35S-ABF transgenic plants. Seeds were germinated and grown for 14 days on the regular growth medium or the same medium supplemented with 3% glucose or mannitol at vertical position. A319, A333, A405, and A406 indicate transgenic lines.
# (§5) High concentrations of salts inhibit the germination of Arabidopsis (Werner and Finkelstein, 1995; Leon-Kloosterziel et al., 1996; Quesada et al., 2000; Zhu, 2000). […] To test this, 35S-ABF transgenic plants were germinated on media containing various concentrations of NaCl.
# (§6) Plants were grown at 22° C. under long day condition (16 hr light/8 hr dark cycle) aseptically or on soil. […]
# [12] = tested on: 35S-ABF plants; test: Salt effect on germination and newly germinated seedling growth; format: in vivo, Arabidopsis thaliana
# Method: as §4, §5, §6
# [13] = tested on: 35S-ABF transgenic lines; test: Glucose response of seedlings; format: in vivo, Arabidopsis thaliana; conditions: 3% mannitol; both wild type and 35S-ABF transgenic plants
# Method: as §4
# Plants were grown at 22° C. under long day condition (16 hr light/8 hr dark cycle) aseptically or on soil. For soil growth, seeds were sown on 1:1:1 mixture of vermiculite, perlite and peat moss irrigated with 0.1% Hyponex, placed at 4° C. for 4 days in the dark to break residual dormancy, and transferred to normal growth conditions. Unless otherwise stated, the plants were watered once a week. […]
compound,measurement,setting,value
"CC1=CC(=O)CC(C)(C)[C@@]1(O)/C=C/C(C)=C\C(=O)O [ABA, abscisic acid]",germination,[1],80%
same,germination efficiency,[2],8%
same,germination efficiency,[3],28%
same,growth after radicle emergence,[4],continued to grow and develop
same,growth after radicle emergence,[5],completely arrested
same,root growth,[6]; ABA concentration above 5 μM,still continued to grow
same,activity at 0.5 µM,"[6]; Arabidopsis thaliana, 120 h, 0.5 μM ABA, root elongation 5 days after transfer, read-out: root growth, % of control rate",84%
same,activity at 1 µM,"[6]; Arabidopsis thaliana, 120 h, 1 μM ABA, root elongation 5 days after transfer, read-out: root growth, % of control rate",62%
same,root growth,[7],almost completely arrested
same,activity at 0.5 µM,[8]; 0.5 μM ABA,51%
same,activity at 1 µM,[8]; 1 μM ABA,37%
same,activity at 0.5 µM,[9]; 0.5 μM ABA,35%
same,activity at 1 µM,[9]; 1 μM ABA,6%
"NC1(C(=O)O)CC1 [ACC, 1-aminocyclopropane-1-carboxylic acid]",difference in growth response between 35S-ABF and wild type plants,[10],did not see any differences
"O=C(O)Cc1c[nH]c2ccccc12 [IAA, indole-3-acetic acid]",difference in growth response between 35S-ABF and wild type plants,[10],did not see any differences
[Cl-].[Na+] [NaCl],germination,[11],not affected
same,germination and growth,[12]; 100 mM NaCl,significantly affected
OC[C@@H](O)[C@@H](O)[C@H](O)[C@H](O)CO [mannitol],response of germination/seedling growth,"[12]; mannitol, same or twice the concentration (100 mM)",normal
same,growth inhibition,[13],significantly but similarly

# Reference: patent US20050244971A1, “Transgenic plants with enhanced stress tolerance” (KOREA KUMHO PETROCHEMICAL CO., LTD., priority 2002, published 2005)
